Source: PubChem BioAssay AID190 (DTP/NCI, 2004)
Toxic doses and inconclusive results are not listed. How the source made its calls: active means survival T/C of 150% or more; inactive means T/C below 125% in these data.

System: AKR/Lw mice, AKR lymphoma ip, median survival T/C
Experiment: NCI In Vivo Anticancer Drug Screen. Data for tumor model Lymphoma AKR (Transplanted) (intraperitoneal) in AKR/Lw mice
Details: endpoint: median survival time, vehicle: Klucel (hydroxypropylcellulose) (HPC), higher = longer survival
Description: The antitumor activity of compounds was measured in mice bearing transplantable tumors. Survival or tumor size were measured and the results are expressed as the measurement made in the treated group (T) divided by the measurement made in the vehicle treated control group (C). The tumor model used in this assay is Lymphoma AKR (Transplanted) (intraperitoneal) in AKR/Lw mice

Measured: T/C

O=C1CSC(=S)N1c1ccco1
inactive: dose: 25.0 mg/kg/injection, schedule: Q04DX003 (ip) 109 % of control | dose: 50.0 mg/kg/injection, schedule: Q01DX009 (ip) 97 % of control | dose: 50.0 mg/kg/injection, schedule: Q04DX003 (ip) 92 % of control | dose: 100.0 mg/kg/injection, schedule: Q01DX001 (ip) 103 % of control | dose: 100.0 mg/kg/injection, schedule: Q01DX009 (ip) 95 % of control | dose: 100.0 mg/kg/injection, schedule: Q04DX003 (ip) 90 % of control | dose: 200.0 mg/kg/injection, schedule: Q01DX001 (ip) 96 % of control | dose: 200.0 mg/kg/injection, schedule: Q01DX009 (ip) 102 % of control | dose: 200.0 mg/kg/injection, schedule: Q04DX003 (ip) 88 % of control
